Measured values as given in BigSolDB 2.1.

Conditions: 298.15 K

O=[N+]([O-])c1cccc2ccccc12
Conditions | solubility (mole fraction)
in 2-ethylhexanol | 0.0411
in 2-methyl-1-butanol | 0.0297
in 2-methyl-1-pentanol | 0.0367
in 2-pentanol | 0.0324
in 4-methyl-2-pentanol | 0.0311
in MTBE | 0.214
in acetonitrile | 0.328
in benzene | 0.423
in butyronitrile | 0.383
in cyclohexane | 0.025
in cyclooctane | 0.036
in cyclopentanol | 0.0599
in dibutyl ether | 0.0996
in diethyl ether | 0.237
in diisopropyl ether | 0.104
in ethanol | 0.0277
in ethylene glycol | 0.00463
in isobutanol | 0.0173
in isooctane | 0.0163
in isopentanol | 0.032
in isopropanol | 0.0213
in methylcyclohexane | 0.0277
in n-butanol | 0.0348
in n-decane | 0.0274
in n-decanol | 0.0666
in n-heptane | 0.0198
in n-heptanol | 0.0539
in n-hexadecane | 0.0394
in n-hexane | 0.0174
in n-hexanol | 0.0493
in n-nonane | 0.0252
in n-octane | 0.0223
in n-octanol | 0.0593
in n-pentanol | 0.0424
in n-propanol | 0.0295
in propionitrile | 0.37
in sec-butanol | 0.0331
in tert-butanol | 0.0228
in tert-butylcyclohexane | 0.0303
in toluene | 0.421
in undecane | 0.0293
